{"source": "patent US6437177B1", "about": "“α-hydroxy, -amino, and halo derivatives of β-sulfonyl hydroxamic acids as matrix metallopropteinases inhibitors” (priority 1997, dated 2002)"}
{"tested_on": "not given", "experiment": "not given", "settings": "not given", "units": {"melting point": "°C"}}
{"compound": "COc1ccc(S(=O)(=O)CC(O)(CS(=O)(=O)c2ccc(OC)cc2)C(=O)NO)cc1", "note": "[Example 4]", "melting point": "75 to 80"}
{"molecular_target": "Stromelysin (Homo sapiens, UniProt P08254)", "sequence (P08254 100-477)": "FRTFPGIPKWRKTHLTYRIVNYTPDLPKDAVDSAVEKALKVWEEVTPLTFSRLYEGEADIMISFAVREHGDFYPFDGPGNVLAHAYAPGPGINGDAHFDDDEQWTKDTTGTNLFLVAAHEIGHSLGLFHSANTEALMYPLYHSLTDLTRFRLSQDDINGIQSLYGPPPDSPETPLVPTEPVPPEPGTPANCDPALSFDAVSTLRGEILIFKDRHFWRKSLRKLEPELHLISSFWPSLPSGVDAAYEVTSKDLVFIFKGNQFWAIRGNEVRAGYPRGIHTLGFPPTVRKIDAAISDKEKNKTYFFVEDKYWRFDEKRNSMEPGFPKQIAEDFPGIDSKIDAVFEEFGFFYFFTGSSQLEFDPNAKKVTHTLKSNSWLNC", "experiment": "MMP inhibition, particle concentration fluorescence assay (stromelysin)", "format": "biochemical", "settings": "in vitro; fluorescein/biotin substrate; MMP buffer pH 7.5; room temperature", "protocol": "Inhibitory activity is evaluated in one or more of the MMP enzymes (stromelysin, gelatinase, and collagenase) in vitro using particle concentration fluorescence assay. An inhibitor binds to MMP enzymes which prevents the degradation of a substrate by stromelysin, gelatinase, or coilagenase. The substrate has attached to it a fluorescein and a biotin moiety. The intact substrate then binds to an avidin-coated particle via the biotin moiety. Once the particle is washed and dried, a fluorescent signal is generated since the fluorescent group is attached to the particle. Without an inhibitor present, the substrate is degraded by MMP enzymes and the fluorescein group is removed, therefore, no fluorescent signal can be detected. Testing compounds are dissolved in DMSO to the desired concentration, then the solutions are diluted to 1:5 with MMP buffer (50 mM Tris-HCl, pH 7.5; 150 mM NaCl; 0.02% NaN3). Serial two-fold dilutions of each compound are prepared. A concentrated, activated enzyme solution is transferred into each plate of the testing compounds, and the mixture is incubated at room temperature for 15 minutes. Thawed MMP substrate is then added into all plates, and the plates are incubated in the dark for 1-3 hours at room temperature. At this point, the substrate mixture is mixed with 0.1% avidin-coated polystyrene particles. After 15 minutes, the fluorescence values are measured following filtration and washing of the beads. Ki values are then calculated.", "units": {"Ki": "nM"}}
{"compound": "COc1ccc(S(=O)(=O)CC(O)(CS(=O)(=O)c2ccc(-c3ccccc3)cc2)C(=O)NO)cc1", "note": "(racemic) [Example 1, N-Hydroxy-2-hydroxy-2-[(4-methoxybenzenesulfonyl)methyl]-3-(4-phenylbenzenesulfonyl)-propionamide]", "Ki": 74}
{"compound": "COc1ccc(S(=O)(=O)CC(O)(CS(=O)(=O)c2ccc(-c3ccccc3)cc2)C(=O)NO)cc1", "note": "(single isomer, unassigned) [Example 1, Enantiomer A, N-Hydroxy-2-hydroxy-2-[(4-methoxybenzenesulfonyl)methyl]-3-(4-phenylbenzenesulfonyl)-propionamide]", "Ki": 21}
{"compound": "COc1ccc(S(=O)(=O)CC(O)(CS(=O)(=O)c2ccc(-c3ccccc3)cc2)C(=O)NO)cc1", "note": "(single isomer, unassigned) [Example 1, Enantiomer B, N-Hydroxy-2-hydroxy-2-[(4-methoxybenzenesulfonyl)methyl]-3-(4-phenylbenzenesulfonyl)-propionamide]", "Ki": 80}
{"compound": "COc1ccc(S(=O)(=O)CC(O)(CS(=O)(=O)c2ccc(F)cc2)C(=O)NO)cc1", "note": "(stereo not shown) [Example 2, N-Hydroxy-2-hydroxy-2-[(4-methoxybenzenesulfonyl)methyl]-3-(4-fluorobenzenesulfonyl)-propionamide]", "Ki": 180}
{"compound": "CCCCc1ccc(S(=O)(=O)CC(O)(CS(=O)(=O)c2ccc(OC)cc2)C(=O)NO)cc1", "note": "(stereo not shown) [Example 3, N-Hydroxy-2-hydroxy-2-[(4-methoxybenzenesulfonyl)methyl]-3-(4-n-butylbenzenesulfonyl)-propionamide]", "Ki": 46}
{"compound": "COc1ccc(S(=O)(=O)CC(O)(CS(=O)(=O)c2ccc(OC)cc2)C(=O)NO)cc1", "note": "[Example 4]", "Ki": 39}
{"compound": "COc1ccc(S(=O)(=O)CC(O)(CNC(=O)c2ccccc2)C(=O)NO)cc1", "note": "(stereo not shown) [Example 5]", "Ki": 240}
{"compound": "COc1ccc(S(=O)(=O)CC(O)(CNC(=O)C2CCCC2)C(=O)NO)cc1", "note": "(stereo not shown) [Example 6, N-Hydroxy-2-hydroxy-2-[(4-methoxybenzenesulfonyl)methyl]-3-[N-(cyclopentylcarbonyl)amino]-propionamide]", "Ki": 350}
{"compound": "COc1ccc(C(=O)NCC(O)(CS(=O)(=O)c2ccc(OC)cc2)C(=O)NO)cc1", "note": "(stereo not shown) [Example 7, N-Hydroxy-2-hydroxy-2-[(4-methoxybenzenesulfonyl)methyl]-3-(N-(4-methoxybenzenecarbonyl)amino)-propionamide]", "Ki": 280}
